Measurements: ChEMBL document CHEMBL1122924 (J Med Chem, 1985)

Tests used:
physchem [1] = conditions: pH 7.4
physchem [2] = conditions: octanol/0.05 M phosphate buffer, pH 7.4
Description: Compound was evaluated for apparent partition coefficient (log P) between octanol and 0.05 M phosphate buffer solution of pH 7.40

Compound	half-life (physchem [1]) [h]	logD (physchem [2])
CC[C@H](C(=O)OCCc1ccccc1)[C@H](CO)Cc1cncn1C	3.78	2.16
CC[C@H](C(=O)OCc1ccc(Cl)cc1)[C@H](CO)Cc1cncn1C	0.5	2.54
CC[C@H](C(=O)OC(C)c1ccccc1)[C@H](CO)Cc1cncn1C (stereo partly drawn)	7.92	2.08
CC[C@H](C(=O)OCc1ccccc1C)[C@H](CO)Cc1cncn1C	2.32	2.27
CCCCOC(=O)[C@@H](CC)[C@H](CO)Cc1cncn1C	13.7	1.58
CC[C@H](C(=O)OCc1ccccc1)[C@H](CO)Cc1cncn1C	0.833	1.82

Continued, values first:

half-life (physchem [1]) [h]	logD (physchem [2])	Compound
18.4	2.56	CCCCCCOC(=O)[C@@H](CC)[C@H](CO)Cc1cncn1C
1.28	2.31	CC[C@H](C(=O)OCc1ccc(C)cc1)[C@H](CO)Cc1cncn1C
8.5	0.58	CCOC(=O)[C@@H](CC)[C@H](CO)Cc1cncn1C
